Experimental data as given in US8987193B2, “Nisin derivatives and the use thereof” (University College Cork—National University of Ireland, Cork, priority 2008, dated 2015).
“Also recorded” adds a separate entry of the source. Ends that are not written are not given here.

Tests used:
Assay type in all cases: cell-based
L. monocytogenes EGDe = assay: Deferred antagonism assay; settings: nisin strain; Listeria monocytogenes EDGe
Protocol: (§1) Deferred antagonism assays were performed by replicating strains on GM17 or GM17 x-gal agar plates and allowing them to grow overnight before overlaying with either GM17/BHI/TS/MH agar (0.75% w/v agar) seeded with the appropriate indicator strain. Zone size was calculated as the diameter of the zone of clearing minus the diameter of bacterial growth (5 mm) For higher throughput screening of N20PXX, XM21VX, XXK22T and XXX banks deferred antagonism assays were performed by replicating strains using a 96 pin replicator (Boekel) or spotting 5 μl of a fresh overnight culture on GM17 agar plates and allowing them to grow overnight. […] Additional sets of indicators were employed to further assess/reassess the bioactivity of a number of strains. […] For well-diffusion assays molten agar was cooled to 48° C. and seeded with the appropriate indicator strain. The inoculated medium was rapidly transferred into sterile Petri plates in 50 ml volumes, allowed to solidify and dried. Wells (4.6 mm in diameter) were then made in the seeded plates. Purified nisin and mutant nisins were resuspended in 0.005% acetic acid, serially diluted, 50 μl volumes were dispensed into the aforementioned wells and the plates incubated at 37° C. overnight. Bioactivity was expressed as arbitrary units/ml (AU/ml) and calculated as the reciprocal of the highest dilution that gave a definite zone multiplied by the conversion factor (i.e. 20 when 50 μl was used) (Ryan et al., 1996).

[1] = system: Listeria monocytogenes 33007; assay: Deferred antagonism assay; settings: nisin strain; L. monocytogenes 33007
Protocol: as §1

[2] = system: Listeria monocytogenes 33186; assay: Deferred antagonism assay; settings: nisin strain; L. monocytogenes 33186
Protocol: as §1

[3] = system: Listeria monocytogenes 33423; assay: Deferred antagonism assay; settings: nisin strain; L. monocytogenes 33423
Protocol: as §1

[4] = system: Listeria monocytogenes CD1038; assay: Deferred antagonism assay; settings: nisin strain; L. monocytogenes CD1038
Protocol: as §1

[5] = system: Listeria monocytogenes F2365; assay: Deferred antagonism assay; settings: nisin strain; L. monocytogenes F2365
Protocol: as §1

[6] = system: Listeria monocytogenes LO28; assay: Deferred antagonism assay; settings: nisin strain; L. monocytogenes LO28
Protocol: as §1

[7] = system: Listeria monocytogenes SLCC 6793; assay: Deferred antagonism assay; settings: nisin strain; L. monocytogenes SLCC 6793
Protocol: as §1

Listeria innocua CLIP = assay: Deferred antagonism assay; parameters: key: −, no inhibition; (+), clear zone directly above the colony; +, 1-5 mm zone; ++, 6-10 mm zone; +++, <10 mm zone; settings: nisin strain
Protocol: as §1

[8] = system: Listeria monocytogenes 33008; assay: Deferred antagonism assay; parameters: key: −, no inhibition; (+), clear zone directly above the colony; +, 1-5 mm zone; ++, 6-10 mm zone; +++, <10 mm zone; settings: nisin strain; L. monocytogenes 33008
Protocol: as §1

[9] = system: Listeria monocytogenes 33015; assay: Deferred antagonism assay; parameters: key: −, no inhibition; (+), clear zone directly above the colony; +, 1-5 mm zone; ++, 6-10 mm zone; +++, <10 mm zone; settings: nisin strain; L. monocytogenes 33015
Protocol: as §1

[10] = system: Listeria monocytogenes 33028; assay: Deferred antagonism assay; parameters: key: −, no inhibition; (+), clear zone directly above the colony; +, 1-5 mm zone; ++, 6-10 mm zone; +++, <10 mm zone; settings: nisin strain; L. monocytogenes 33028
Protocol: as §1

[11] = system: Listeria monocytogenes 33068; assay: Deferred antagonism assay; parameters: key: −, no inhibition; (+), clear zone directly above the colony; +, 1-5 mm zone; ++, 6-10 mm zone; +++, <10 mm zone; settings: nisin strain; L. monocytogenes 33068
Protocol: as §1

[12] = system: Listeria monocytogenes 33083; assay: Deferred antagonism assay; parameters: key: −, no inhibition; (+), clear zone directly above the colony; +, 1-5 mm zone; ++, 6-10 mm zone; +++, <10 mm zone; settings: nisin strain; L. monocytogenes 33083
Protocol: as §1

[13] = system: Listeria monocytogenes 33115; assay: Deferred antagonism assay; parameters: key: −, no inhibition; (+), clear zone directly above the colony; +, 1-5 mm zone; ++, 6-10 mm zone; +++, <10 mm zone; settings: nisin strain; L. monocytogenes 33115
Protocol: as §1

[14] = system: Listeria monocytogenes 33226; assay: Deferred antagonism assay; parameters: key: −, no inhibition; (+), clear zone directly above the colony; +, 1-5 mm zone; ++, 6-10 mm zone; +++, <10 mm zone; settings: nisin strain; L. monocytogenes 33226
Protocol: as §1

[15] = system: Listeria monocytogenes 33233; assay: Deferred antagonism assay; parameters: key: −, no inhibition; (+), clear zone directly above the colony; +, 1-5 mm zone; ++, 6-10 mm zone; +++, <10 mm zone; settings: nisin strain; L. monocytogenes 33233
Protocol: as §1

[16] = system: Listeria monocytogenes F6854; assay: Deferred antagonism assay; parameters: key: −, no inhibition; (+), clear zone directly above the colony; +, 1-5 mm zone; ++, 6-10 mm zone; +++, <10 mm zone; settings: nisin strain; L. monocytogenes F6854
Protocol: as §1

[17] = system: Listeria monocytogenes N3008; assay: Deferred antagonism assay; parameters: key: −, no inhibition; (+), clear zone directly above the colony; +, 1-5 mm zone; ++, 6-10 mm zone; +++, <10 mm zone; settings: nisin strain; L. monocytogenes N3008
Protocol: as §1

[18] = system: Listeria monocytogenes SLCC 7194; assay: Deferred antagonism assay; parameters: key: −, no inhibition; (+), clear zone directly above the colony; +, 1-5 mm zone; ++, 6-10 mm zone; +++, <10 mm zone; settings: nisin strain; L. monocytogenes SLCC 7194
Protocol: as §1

indicator strains = assay: Deferred antagonism assays, various indicator strains (summary); settings: relative to nisin A-producing control; value = strains listed
Method in brief: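 Producer strains were replicated on GM17 or GM17 x-gal agar, grown overnight, then overlaid with GM17, BHI, TS or MH soft agar (0.75% w/v) seeded with the indicator strain. Zone size was taken as the clearing diameter minus the diameter of bacterial growth (5 mm).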

“NisinA M21S (ITSISLCTPGCKTGALMGCNSKTATCHCSIHVSK; not fully specified; also: lantibiotic nisin: dehydrated residues and thioether rings not placed; UniProt P13068 24-57, looked up, variant M21S) [nisin A derivative, hinge substitution M21S]” was tested, and the “Activity score (zone)” value (L. monocytogenes EGDe) was “++ (++, 6-10 mm zone)”, the “Activity score (zone)” value [1] was “++ (++, 6-10 mm zone)” and the “Activity score (zone)” value [2] was “+ (+, 1-5 mm zone)”. The “Activity score (zone)” value [3] was “+ (+, 1-5 mm zone)”, the “Activity score (zone)” value [4] was “++ (++, 6-10 mm zone)” and the “Activity score (zone)” value [5] was “++ (++, 6-10 mm zone)”. For the same substance, the “Activity score (zone)” value [6] was “+++ (+++, <10 mm zone)”, the “Activity score (zone)” value [7] was “+++ (+++, <10 mm zone)” and the “Activity score (zone)” value (Listeria innocua CLIP) was “+ (+, 1-5 mm zone)”. For the same substance, the “Activity score (zone)” value [8] was “+ (+, 1-5 mm zone)”, the “Activity score (zone)” value [9] was “+ (+, 1-5 mm zone)” and the “Activity score (zone)” value [10] was “++ (++, 6-10 mm zone)”. For the same substance, the “Activity score (zone)” value [11] was “+ (+, 1-5 mm zone)”, the “Activity score (zone)” value [12] was “+ (+, 1-5 mm zone)” and the “Activity score (zone)” value [13] was “(+)”. The “Activity score (zone)” value [14] was “+ (+, 1-5 mm zone)”, the “Activity score (zone)” value [15] was “+ (+, 1-5 mm zone)” and the “Activity score (zone)” value [16] was “+ (+, 1-5 mm zone)”. The “Activity score (zone)” value [17] was “++ (++, 6-10 mm zone)”, the “Activity score (zone)” value [18] was “+ (+, 1-5 mm zone)” and the “Strain(s) against which the derivative (producing strain) displays enhanced bioactivity” value (indicator strains) was “L. monocytogenes CBC2 , CBC3, Staph. aureus CBC4, C. sporogenes CBC5 and L. lactis CBC8; also recorded: L. monocytogenes CBC2 , CBC3, S. aureus CBC4, C. sporogenes CBC5, L. lactis CBC8 and an additional 23 L. monocytogenes strains and 3 L. innocua”.
